Assay results taken from patent US7176230B2, “Synthesis of indole analogs of 1-benzyl-3-(5′-hydroxymethyl-2′-furyl) indazole (YC-1) as anti-platelet agents” (Industrial Technology Research Institute, priority 2004, dated 2007).

Legend:
[1] = tested on: collagen-induced platelet aggregation; test: Platelet aggregation induced by collagen (turbidimetric, washed platelet suspension); assay type: cell-based, rabbit; details: for inhibition of collagen-induced platelet aggregation (in words): discussion of Table 1; for IC50: rabbit platelets incubated with test compound at 37° C. for 1 min, then collagen (10 μg/mL)
Procedure: (§1) Collagen (type 1, bovine Achilles tendon), obtained from Sigma Chemical Co., was homogenized in […] HOAc and stored at −70° C. Arachidonic acid, bovine serum albumin (BSA), EDTA (disodium salt), sodium citrate, dimethyl sulfoxide (DMSO), and platelet activating factor (PAF) were purchased from Sigma Chemical Co. Thrombin (bovine) was obtained from Parke-Davis Co. and dissolved in 50% (viv) glycerol to give a stock solution of 100 NIH units/mL.
(§2) Blood was collected from the rabbit marginal ear vein and was mixed with EDTA to a final concentration of 6 mM. It was centrifuged at 90 g for 10 min at room temperature, and the supernatant was obtained as platelet-rich plasma. The latter was further centrifuged at 500 g for 10 min. The platelet pellets were washed with Tyrode's solution without EDTA. After centrifugation at the same conditions, the platelet pellets were finally suspended in Tyrode's solution of the following composition (mM): NaCl (136.8), KCl (2.81, NaHCO3 (11.9), MgCl2 (1.1), NaH2PO4 (0.33), CaCl2 (1.0), and glucose (11.2). Platelet numbers were counted by Coulter Counter (Model ZM) and adjusted to 4.5×10^8 […].
(§3) Aggregation was measured by the turbidmetric method with a dual-channel Lumiaggregometer (Model 1020, Payton, Canada). All glassware was siliconized. One minute before the addition of the aggregation inducer, the platelet suspension was stirred at 900 rpm. The percentage of aggregation was calculated as described previously.

[2] = tested on: PAF-induced platelet aggregation; test: Platelet aggregation induced by PAF (turbidimetric, washed platelet suspension); assay type: cell-based, rabbit; details: for inhibition of PAF-induced platelet aggregation (in words): discussion of Table 1; for IC50: rabbit platelets incubated with test compound at 37° C. for 1 min, then PAF (2 ng/mL)
Procedure: as §1, §2, §3

[3] = tested on: AA-induced platelet aggregation; test: Platelet aggregation induced by AA (turbidimetric, washed platelet suspension); assay type: cell-based, rabbit; details: for inhibition of AA-induced platelet aggregation (in words): discussion of Table 1; for IC50: rabbit platelets incubated with test compound at 37° C. for 1 min, then AA (100 μM)
Procedure: as §1, §2, §3

[4] = tested on: thrombin-induced platelet aggregation; test: Platelet aggregation induced by thrombin (turbidimetric, washed platelet suspension); assay type: cell-based, rabbit; details: for inhibition of thrombin-induced platelet aggregation (in words): discussion of Table 1; for IC50: rabbit platelets incubated with test compound at 37° C. for 1 min, then thrombin (0.1 unit/mL)
Procedure: as §1, §2, §3

platelet aggregation = test: Antiplatelet aggregation activity, overall statements over the four inducers; assay type: cell-based, rabbit; details: discussion of Table 1, all inducers
Procedure: as §1, §2, §3

[5] = Oryctolagus cuniculus, Platelet, 1 min

Row | SMILES | inhibition of collagen-induced platelet aggregation (in words) [1] | IC50 [1] [µM] | inhibition of PAF-induced platelet aggregation (in words) [2] | IC50 [2] [µM] | inhibition of AA-induced platelet aggregation (in words) [3] | IC50 [3] [µM] | inhibition of thrombin-induced platelet aggregation (in words) [4] | IC50 [4] [µM] | IC50 [1, 5] [µM] | IC50 [2, 5] [µM] | IC50 [3, 5] [µM] | IC50 [4, 5] [µM] | anti-platelet activity overall (in words) (platelet aggregation) | melting point [°C]
1 | O=S(=O)(c1ccccc1)n1cc(-c2ccc(CO)s2)c2ccccc21 [Compound 17, N-Benzenesulfonyl-3-(5′-hydroxymethyl-2′-thienyl)indole] | excellent inhibitory activity | 131 | excellent inhibitory activity | 171 | excellent inhibitory activity | 154 | impaired its inhibitory activity | > 300 | – | – | – | – | – | –
2 | OCc1ccc(-c2nn(Cc3ccccc3)c3ccccc23)cc1 [YD-1, 1-benzyl-3-(4-hydroxymethylphenyl)indazole, reference compound] | – | – | – | – | – | – | – | – | 123 | 143 | 101 | 193 | – | –
3 | COc1ccc(C(=O)n2cc(-c3ccc(CO)o3)c3ccccc32)cc1 [Compound 34, N-(4′-Methoxybenzoyl)-3-(5′-hydroxymethyl-2′-furyl)indole] | potent inhibition | 30.9 | poor inhibition | 270 | potent inhibition | 2.9 | poor inhibition | > 300 | – | – | – | – | – | –
4 | OCc1ccc(-c2cn(Cc3ccccc3)c3ccccc23)s1 [Compound 8, N-Benzyl-3-(5′-hydroxymethyl-2′-thienyl)indole] | – | > 300 | – | > 300 | – | > 300 | – | > 300 | – | – | – | – | did not improve its activity | –
5 | COc1cccc(C(=O)n2cc(-c3ccc(CO)o3)c3ccccc32)c1 [Compound 33, N-(3′-Methoxybenzoyl)-3-(5′-hydroxymethyl-2′-furyl)indole] | significant inhibition | 83.9 | significant inhibition | 169 | significant inhibition | 90.9 | significant inhibition | 175 | – | – | – | – | comparable with YC-1 | –
6 | O=S(=O)(c1ccccc1)n1cc(-c2ccc(CO)o2)c2ccccc21 [Compound 16, N-Benzenesulfonyl-3-(5′-hydroxymethyl-2′-furyl)indole] | significant inhibition | 73.7 | significant inhibition | 164 | significant inhibition | 94.9 | significant inhibition | 173 | – | – | – | – | – | –
7 | OCc1ccc(-c2nn(Cc3ccccc3)c3ccccc23)o1 [YC-1, 1-benzyl-3-(5′-hydroxymethyl-2′-furyl)indazole] | – | – | – | – | – | – | – | – | 54.6 | 90 | 57 | 180 | – | –
8 | OCc1ccc(-c2cn(Cc3ccccc3)c3ccccc23)o1 [Compound 7, N-Benzyl-3-(5′-hydroxymethyl-2′-furyl)indole] | – | > 300 | – | > 300 | – | > 300 | – | > 300 | – | – | – | – | nearly no anti-platelet activity | –
9 | O=C(c1ccccc1)n1cc(-c2ccc(CO)o2)c2ccccc21 [Compound 32, N-Benzoyl-3-(5′-hydroxymethyl-2′-furyl)indole] | excellent inhibitory activity | 51.1 | inefficient | > 300 | excellent inhibitory activity | 38.2 | inefficient | > 300 | – | – | – | – | – | –
10 | OCc1ccc(-c2cn(Cc3ccccc3)c3ccccc23)cc1 [Compound 10, N-Benzyl-3-(4-hydroxymethylphenyl)indole] | inhibited | – | inhibited | – | – | – | – | – | 168 | 170 | > 300 | > 300 | – | 122
